Data on two molecules can be found in ChEMBL document CHEMBL4619785, “Advantages of the Parent Nucleoside GS-441524 over Remdesivir for Covid-19 Treatment” (ACS Med Chem Lett, 2020).

Molecules are shown by their SMILES.

In one series the test system is Feline coronavirus. As to the kind of experiment: Antiviral activity against Feline corona virus infected in CRFK cells. In kind it is functional, organism-based. As to conditions: Alphacoronavirus 1, CRFK.
Series [1] has as its system Middle East respiratory syndrome-related coronavirus. Kind of series: Antiviral activity against Middle East respiratory syndrome coronavirus infected in primary HAE cells. In kind it is functional, organism-based.
A short description of series [2]: Cytotoxic activity in HAE cells. As to conditions: human. In kind it is cell-based.
The subject of another series is SARS-CoV. Kind of series: Antiviral activity against SARS coronavirus infected in primary HAE cells. In kind it is functional, organism-based. As to conditions: Severe acute respiratory syndrome-related coronavirus.
Series [3] can be described thus: in vivo. The conditions noted are these: mouse.
Series [4] in a line: in vivo. The conditions noted are these: rhesus monkey, serum, iv.

Usually EC50 stands for the concentration that produces a half-maximal response. High values mean lower potency in that assay, low ones higher potency in that assay. The term CC50 denotes the concentration that lowers cell viability or growth by half. The low end stands for greater toxicity to the cells, the high end for lower toxicity to the cells. In the case of `N#C[C@@]1(c2ccc3c(N)ncnn23)O[C@H](COP(=O)(O)OP(=O)(O)OP(=O)(O)O)[C@@H](O)[C@H]1O` [RDV-TP], the EC50 in the series on Feline coronavirus turned out to be 780 nM; in series [1], 860 nM; in the series with SARS-CoV, 180 nM. The cytotoxic concentration (CC50) in series [2] was more than 100000 nM.
One may read the half-life as the time needed for the level to fall by half in the phase considered. On to `CCC(CC)COC(=O)[C@H](C)N[P@](=O)(OC[C@H]1O[C@@](C#N)(c2ccc3c(N)ncnn23)[C@H](O)[C@@H]1O)Oc1ccccc1` [REMDESIVIR], for which the half-life in the series “in vivo [3]” is 25 min; in “in vivo [4]”, 24 min. The EC50 in series [1] amounted to 74 nM; in the series with SARS-CoV, 69 nM. In addition, the CC50 in series [2] is more than 10000 nM.
